According to article PMC9541279 (The Plant Journal, 2022):

Molecular target: T1, DkSCPL1 and DkSCPL2 co-expressed (Diospyros kaki, UniProt C6L1N2)
T1 sequence (C6L1N2 36-491): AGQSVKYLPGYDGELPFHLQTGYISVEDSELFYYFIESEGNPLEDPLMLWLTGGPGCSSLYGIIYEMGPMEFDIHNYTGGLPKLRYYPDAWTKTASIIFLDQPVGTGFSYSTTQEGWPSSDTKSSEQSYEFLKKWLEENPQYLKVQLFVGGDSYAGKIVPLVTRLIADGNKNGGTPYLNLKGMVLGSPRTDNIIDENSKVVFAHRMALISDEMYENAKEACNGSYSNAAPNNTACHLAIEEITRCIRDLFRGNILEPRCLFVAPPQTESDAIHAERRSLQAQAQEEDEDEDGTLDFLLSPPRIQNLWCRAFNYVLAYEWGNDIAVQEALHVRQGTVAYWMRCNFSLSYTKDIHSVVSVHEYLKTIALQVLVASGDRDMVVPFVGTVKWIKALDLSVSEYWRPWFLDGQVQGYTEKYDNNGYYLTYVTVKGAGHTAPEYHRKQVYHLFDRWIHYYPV
T1 sequence (A4PB66 1-452 partner): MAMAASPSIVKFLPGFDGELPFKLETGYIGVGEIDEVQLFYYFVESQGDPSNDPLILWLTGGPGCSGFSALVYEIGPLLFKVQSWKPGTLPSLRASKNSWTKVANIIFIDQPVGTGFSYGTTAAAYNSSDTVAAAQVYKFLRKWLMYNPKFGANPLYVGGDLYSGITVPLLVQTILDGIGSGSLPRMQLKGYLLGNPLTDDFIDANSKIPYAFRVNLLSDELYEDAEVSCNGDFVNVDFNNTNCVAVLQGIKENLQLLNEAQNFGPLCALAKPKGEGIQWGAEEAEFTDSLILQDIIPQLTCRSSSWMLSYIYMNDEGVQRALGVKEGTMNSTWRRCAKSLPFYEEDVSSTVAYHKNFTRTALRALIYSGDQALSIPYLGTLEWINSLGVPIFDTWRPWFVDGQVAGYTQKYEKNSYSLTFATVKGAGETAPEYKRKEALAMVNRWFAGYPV
Experiment: EGCG formation, UPLC-MS/MS, crude extract of N. benthamiana leaves
Type: biochemical
Conditions: 50 mM phosphate pH 6.0, 30 °C

Oc1cc(O)c2c(c1)O[C@H](c1cc(O)c(O)c(O)c1)[C@H](O)C2 [EGC]
EGCG formation, UPLC-MS/MS, crude extract of N. benthamiana leaves (acyl donor βG): the two paralogs when co‐expressed catalyzed the formation of EGCG

O=C(O[C@@H]1O[C@H](CO)[C@@H](O)[C@H](O)[C@H]1O)c1cc(O)c(O)c(O)c1 [βG]
EGCG formation, UPLC-MS/MS, crude extract of N. benthamiana leaves (acyl acceptor EGC): the two paralogs when co‐expressed catalyzed the formation of EGCG
